By IC50 is commonly meant the concentration at which inhibition is half-maximal. Read a high IC50 as a need for much substance.

Assay [1] addresses T1, CD22 (Siglec-2) (Mus musculus, UniProt P35329).
T1 construct: amino-terminal domains (domains 1–3) fused to Fc region of human IgG1 (CD22-Fc)
T1 sequence (P35329 22-347 limits assumed): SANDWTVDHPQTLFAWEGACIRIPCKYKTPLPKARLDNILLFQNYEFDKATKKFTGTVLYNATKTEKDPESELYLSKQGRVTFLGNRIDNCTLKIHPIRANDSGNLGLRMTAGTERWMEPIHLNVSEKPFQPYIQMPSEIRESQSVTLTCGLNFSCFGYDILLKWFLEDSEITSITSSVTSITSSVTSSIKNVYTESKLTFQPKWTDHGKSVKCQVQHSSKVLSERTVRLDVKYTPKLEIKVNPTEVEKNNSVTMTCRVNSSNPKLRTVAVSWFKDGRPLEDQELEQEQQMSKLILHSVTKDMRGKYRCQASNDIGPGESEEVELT
In words: competition ELISA, mouse CD22-Fc binding to immobilized biotinylated synthetic CD22 ligand.

The target in assay [2] is T2, CD22 (Siglec-2) (Homo sapiens, UniProt P20273).
T2 construct: amino-terminal domains (domains 1–3) fused to Fc region of human IgG1 (CD22-Fc)
T2 sequence (P20273 20-326 limits assumed): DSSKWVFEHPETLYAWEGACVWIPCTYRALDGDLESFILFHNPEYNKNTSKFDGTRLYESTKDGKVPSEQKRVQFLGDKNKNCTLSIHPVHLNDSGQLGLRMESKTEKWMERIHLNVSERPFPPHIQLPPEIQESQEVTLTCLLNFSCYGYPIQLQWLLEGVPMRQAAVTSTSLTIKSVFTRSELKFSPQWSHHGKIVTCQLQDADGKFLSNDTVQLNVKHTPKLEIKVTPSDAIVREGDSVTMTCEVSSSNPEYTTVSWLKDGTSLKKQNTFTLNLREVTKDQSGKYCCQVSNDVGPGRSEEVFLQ
In words: competition ELISA, human CD22-Fc binding to immobilized α1-acid glycoprotein. Background: An ELISA detects its analyte on a solid surface through an enzyme-linked reagent.

As to `O=C(Cc1ccc(-c2ccc(O)cc2)cc1)NC[C@@H](O)[C@@H](O)[C@@H]1OC(OCc2ccc(F)cc2)(C(=O)O)C[C@H](O)[C@H]1NC(=O)CO` (stereo partly shown) [GSC839], the half-maximal inhibitory concentration (IC50) at CD22 (Siglec-2) [1] and at CD22 (Siglec-2) [2] was approximately 100 nM in each case.

Turning to `O=C(Cc1ccc(-c2ccc(O)cc2)cc1)NC[C@@H](O)[C@@H](O)[C@@H]1O[C@@](OCc2ccccc2)(C(=O)O)C[C@H](O)[C@H]1NC(=O)CO` [GSC718], the IC50 on CD22 (Siglec-2) [1] and at CD22 (Siglec-2) [2] was approximately 100 nM in each case.

(Values after paper PMC5917077, “CD22-Binding Synthetic Sialosides Regulate B Lymphocyte Proliferation Through CD22 Ligand-Dependent and Independent Pathways, and Enhance Antibody Production in Mice” (Frontiers in Immunology, 2018).)
